# How the values were obtained:
# [1] = tested on: BECN1, SQSTM1/p62, (phospho)p42/44 MAPK; test: Immunoblot of autophagy and inflammation markers in CFBE cells; assay type: cell-based; conditions: 0.1 μM
# Description: Cell lines experiments. CFBE41l- and 16HBE14o-cells were cultured in Minimum Essential Medium (MEM) with Earle's salt, 200 mM L-Glutamine, 10% FBS and penicillin/streptomycin. […]
# (§1) The proteins of cell lines lysates or lung or small intestine homogenates, obtained from treated and untreated cells or mice, were quantified by a Bio-Rad protein assay to ensure equal protein loading before immunoblot analysis. Fifty micrograms of proteins were loaded in each lane. Antibodies against SQSTM1, (Sigma Aldrich,P0067) 1:1000, BECN1 (Abcam, ab58878), 1:1000, CFTR clone CF3 (Abcam, ab2784) 1:1000 or anti-CFTR antibody 660 1:1000, Phospho-p44/42 MAPK (Erk1/2) (Thr202/Tyr204) (Cell Signaling Technology, #91101) 1:1000, TG2 (CUB7402, NEOMARKER) 1:1000 were used. Normalization was performed by probing the membrane with anti-β-actin (Cell Signaling, #4970) 1:1000 or anti-α-tubulin (Cell Signaling Technology, 2148) 1:1000.
# CFTR [2] = molecular target: T1, CFTR (Mus musculus, UniProt P26361, DEL508-508); test: Immunoblot of CFTR protein levels in tissues of CftrF508del mice; assay type: in vivo; conditions: i.p. 5 d, then 20 d of wash out, lung and small intestinal tissue
# T1 construct: the Ussing chamber experiments (on small intestinal tissues); from tissue; host or cells: small intestine (Ussing chamber); lung and small intestine homogenates (immunoblot) of CftrF508del mice
# Description: (§2) CF mice homozygous for the delF508-CFTR mutation (abbreviated CftrF508del) in the 129/FVB outbred background (CftrtmlEUR, F508del, FVB/129) were obtained from Erasmus Medical Center Rotterdam, The Netherlands (CF coordinated action program EU FP6 LSHM-CT-2005-018932). These studies and procedures were approved by the local Ethics Committee for Animal Welfare (IACUC No 713). Young adult CF mice and their wild-type (wt) littermates were housed in static isolator cages at the animal care specific pathogen-free facility of Charles River (Calco, Italy). CftrF508del mice were treated with daily intraperitoneal injections of cysteamine (100 μl of 0.05 M in PBS) (Sigma Aldrich, M9768) or IE1 (100 μl of 0.075-0.05-0.025-0.0125 M, in PBS) for 5 d or with cysteamine (5 d) or IE1 different concentrations followed by 10 d or 20 d of PBS alone (n=5 mice per group) (19,20).
# (§3) The proteins of cell lines lysates or lung or small intestine homogenates, obtained from treated and untreated cells or mice, were quantified by a Bio-Rad protein assay to ensure equal protein loading before immunoblot analysis. Fifty micrograms of proteins were loaded in each lane. […]
# [3] = tested on: BECN1, (phospho)p42/44 MAPK; test: Immunoblot of whole homogenates from intestinal and lung tissues of CftrF508del mice; assay type: in vivo
# Description: as §2, §3
# F508delCFTR = F508delCFTR (Homo sapiens, UniProt P13569, DEL508-508); test: SPQ assay in primary nasal cells collected by nasal brushing from CF patients; assay type: cell-based; design: Freshly isolated brushed nasal epithelial cells were collected by nasal brushing; endogenous in cells; host or cells: primary nasal epithelial cells from F508del-homozygous CF patients
# Description: The compounds of formula I have marked effects on CFTR function. A representative number of compounds of formula I (Compounds IE1-IE4; Table I) were tested in comparison to cysteamine and amifostine through SPQ assay in F508delCFTR homozygous bronchial epithelial cell lines (CFBE41o-) transfected with F508delCFTR (FIG. 1) and in ex vivo in nasal cells collected by nasal brushing from CF patients (FIGS. 2A and B). Freshly isolated brushed nasal epithelial cells were collected by nasal brushing, as previously described (21, 21) from 10 F508del-CFTR homozygous CF patients and from 5 non-CF healthy volunteers recruited from staff at the same time points. Both patients and healthy volunteers gave written informed consent. […] Brushes with cells were immediately transferred into RPMI 1640 medium (Invitrogen) containing 1% penicillin-streptomycin (Lonza, 17-602E), in 15-ml sterilized tubes. The tubes were incubated at 37° C. for 2 h on a thermo shaker, to remove all cell from brushes; the brushes were then removed and the cells centrifuged at 800×g (2000 rpm) for 20 min. The supernatant fractions were discarded and the cell pellet treated with […] of trypsin-versene (EDTA) solution (Lonza, 17-161) for 4 min at 37° C. to disaggregate possible cell clusters. Trypsin solution was inactivated by adding 3 ml of serum-free Bronchial Epithelial cell Growth Medium BEGM (Clonetics, Lonza, CC3170). After centrifugation at 800×g (2000 rpm) for 10 min, cells were placed in […] 25 flasks (Sarstedt Ltd, CS300) with 10 ml of BEGM medium. Nonspecific epithelial cells were removed during the daily cell washing and medium changes.
# CFTR [4] = molecular target: CFTR (Homo sapiens, UniProt P13569, DEL508-508); test: Immunoblot detection of CFTR in nasal primary cells; assay type: cell-based; design: Freshly isolated brushed nasal epithelial cells were collected by nasal brushing; endogenous in cells; host or cells: primary nasal epithelial cells from F508del-homozygous CF patients
# Description: Freshly isolated brushed nasal epithelial cells were collected by nasal brushing, as previously described (21, 21) from 10 F508del-CFTR homozygous CF patients and from 5 non-CF healthy volunteers recruited from staff at the same time points. Both patients and healthy volunteers gave written informed consent. […] Brushes with cells were immediately transferred into RPMI 1640 medium (Invitrogen) containing 1% penicillin-streptomycin (Lonza, 17-602E), in 15-ml sterilized tubes. The tubes were incubated at 37° C. for 2 h on a thermo shaker, to remove all cell from brushes; the brushes were then removed and the cells centrifuged at 800×g (2000 rpm) for 20 min. The supernatant fractions were discarded and the cell pellet treated with […] of trypsin-versene (EDTA) solution (Lonza, 17-161) for 4 min at 37° C. to disaggregate possible cell clusters. Trypsin solution was inactivated by adding 3 ml of serum-free Bronchial Epithelial cell Growth Medium BEGM (Clonetics, Lonza, CC3170). After centrifugation at 800×g (2000 rpm) for 10 min, cells were placed in CELLC T 25 flasks (Sarstedt Ltd, CS300) with 10 ml of BEGM medium. Nonspecific epithelial cells were removed during the daily cell washing and medium changes.
# as §1
# Sequence of CFTR (Homo sapiens, UniProt P13569, DEL508-508) (P13569 with tags, fused parts or gaps DEL508-508): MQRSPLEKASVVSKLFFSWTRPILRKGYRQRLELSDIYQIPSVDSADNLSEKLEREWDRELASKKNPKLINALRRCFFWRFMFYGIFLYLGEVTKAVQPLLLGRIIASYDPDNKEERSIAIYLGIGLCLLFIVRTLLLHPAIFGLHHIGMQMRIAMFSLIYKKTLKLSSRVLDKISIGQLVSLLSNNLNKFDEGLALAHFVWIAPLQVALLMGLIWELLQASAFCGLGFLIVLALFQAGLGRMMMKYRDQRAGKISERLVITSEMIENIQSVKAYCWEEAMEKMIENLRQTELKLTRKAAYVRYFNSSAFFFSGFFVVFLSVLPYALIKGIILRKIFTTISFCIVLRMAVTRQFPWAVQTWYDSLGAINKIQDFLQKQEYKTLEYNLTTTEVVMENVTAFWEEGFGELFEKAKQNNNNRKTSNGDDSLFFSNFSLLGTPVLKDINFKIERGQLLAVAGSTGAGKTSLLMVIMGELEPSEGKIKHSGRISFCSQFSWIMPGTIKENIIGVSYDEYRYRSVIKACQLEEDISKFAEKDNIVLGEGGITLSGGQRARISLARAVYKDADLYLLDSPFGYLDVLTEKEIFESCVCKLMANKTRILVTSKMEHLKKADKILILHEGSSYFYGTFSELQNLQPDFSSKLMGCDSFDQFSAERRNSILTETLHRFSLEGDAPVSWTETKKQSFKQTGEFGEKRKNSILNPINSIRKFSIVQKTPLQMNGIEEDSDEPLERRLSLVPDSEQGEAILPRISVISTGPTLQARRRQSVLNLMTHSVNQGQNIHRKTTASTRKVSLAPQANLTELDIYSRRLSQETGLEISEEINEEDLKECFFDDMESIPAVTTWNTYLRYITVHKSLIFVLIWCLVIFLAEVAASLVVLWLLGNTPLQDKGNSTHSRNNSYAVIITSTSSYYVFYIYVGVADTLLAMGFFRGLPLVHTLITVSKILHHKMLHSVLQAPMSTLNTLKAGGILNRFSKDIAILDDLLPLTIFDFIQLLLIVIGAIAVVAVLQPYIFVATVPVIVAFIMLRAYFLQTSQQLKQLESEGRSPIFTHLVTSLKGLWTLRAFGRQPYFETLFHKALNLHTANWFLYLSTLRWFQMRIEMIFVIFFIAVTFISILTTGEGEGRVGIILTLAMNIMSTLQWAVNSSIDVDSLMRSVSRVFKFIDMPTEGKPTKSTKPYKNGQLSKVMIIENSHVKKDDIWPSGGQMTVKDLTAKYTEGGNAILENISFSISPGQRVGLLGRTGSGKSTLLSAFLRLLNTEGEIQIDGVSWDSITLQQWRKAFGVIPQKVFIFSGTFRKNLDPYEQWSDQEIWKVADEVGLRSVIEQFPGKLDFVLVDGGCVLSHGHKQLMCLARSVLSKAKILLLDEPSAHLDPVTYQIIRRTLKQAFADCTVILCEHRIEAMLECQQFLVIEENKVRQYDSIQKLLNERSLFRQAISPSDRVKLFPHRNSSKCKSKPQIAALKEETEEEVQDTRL
# Sequence of F508delCFTR (P13569 with tags, fused parts or gaps DEL508-508): as above
# T1 sequence (P26361 with tags, fused parts or gaps DEL508-508): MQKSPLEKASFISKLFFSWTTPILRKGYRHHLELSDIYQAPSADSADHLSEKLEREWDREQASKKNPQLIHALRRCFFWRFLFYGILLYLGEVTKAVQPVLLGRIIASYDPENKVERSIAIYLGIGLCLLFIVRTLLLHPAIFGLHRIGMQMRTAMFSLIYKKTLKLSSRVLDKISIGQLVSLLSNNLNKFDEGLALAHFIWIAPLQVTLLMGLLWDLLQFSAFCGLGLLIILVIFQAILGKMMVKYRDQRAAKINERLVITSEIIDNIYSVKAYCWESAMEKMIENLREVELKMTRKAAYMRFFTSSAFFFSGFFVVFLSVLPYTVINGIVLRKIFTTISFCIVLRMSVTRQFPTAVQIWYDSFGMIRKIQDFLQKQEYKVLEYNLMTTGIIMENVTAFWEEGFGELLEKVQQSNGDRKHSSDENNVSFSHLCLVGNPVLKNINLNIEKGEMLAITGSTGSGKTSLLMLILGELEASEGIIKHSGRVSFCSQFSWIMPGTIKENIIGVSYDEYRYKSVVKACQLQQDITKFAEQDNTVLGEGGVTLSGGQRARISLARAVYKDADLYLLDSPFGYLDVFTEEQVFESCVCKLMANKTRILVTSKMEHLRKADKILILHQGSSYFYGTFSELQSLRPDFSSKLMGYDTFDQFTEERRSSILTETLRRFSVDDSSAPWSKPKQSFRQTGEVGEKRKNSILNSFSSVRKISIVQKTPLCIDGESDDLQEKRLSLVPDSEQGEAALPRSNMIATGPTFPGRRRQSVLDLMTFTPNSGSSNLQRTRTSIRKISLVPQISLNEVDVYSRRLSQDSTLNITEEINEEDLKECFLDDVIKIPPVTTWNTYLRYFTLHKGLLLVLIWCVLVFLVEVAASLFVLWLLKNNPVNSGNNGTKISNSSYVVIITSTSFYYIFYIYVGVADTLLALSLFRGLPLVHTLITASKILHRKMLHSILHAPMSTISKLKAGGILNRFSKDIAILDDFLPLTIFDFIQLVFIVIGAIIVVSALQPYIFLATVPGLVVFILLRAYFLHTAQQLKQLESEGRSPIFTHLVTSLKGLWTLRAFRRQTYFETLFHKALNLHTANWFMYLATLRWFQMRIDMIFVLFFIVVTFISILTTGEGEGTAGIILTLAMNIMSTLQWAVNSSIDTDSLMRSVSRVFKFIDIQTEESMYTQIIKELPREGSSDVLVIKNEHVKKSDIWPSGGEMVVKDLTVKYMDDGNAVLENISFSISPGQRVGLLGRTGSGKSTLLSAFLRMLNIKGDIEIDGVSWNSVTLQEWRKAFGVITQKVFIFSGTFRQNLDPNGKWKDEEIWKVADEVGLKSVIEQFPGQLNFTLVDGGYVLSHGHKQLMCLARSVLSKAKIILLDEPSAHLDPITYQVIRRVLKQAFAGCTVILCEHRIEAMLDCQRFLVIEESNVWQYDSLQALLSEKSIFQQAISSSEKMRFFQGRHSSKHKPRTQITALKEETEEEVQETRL
smiles,measurement,setting,value
"NCCCS [IE1, 3-aminopropane-1-thiol]",BECN1 level,[1],able to restore BECN1
same,Inflammation biomarkers (phospho)p42/44 MAPK,[1],decrease
same,p62 levels,[1],reduce p62 levels
same,Effect on (phospho)p42/44 MAPK after 48 h in presence of EGCG,"[1]; 48 h, EGCG",maintained
same,Effect on BECN1 and p62 after 48 h with EGCG addition,"[1]; 48 h, EGCG addition",preserved
same,Effect on (phospho)p42/44 MAPK after 48 h,[1]; after 48 h,completely lost
same,Effect on BECN1 and p62 after 48 h,[1]; after 48 h,disappears
same,CFTR protein levels after wash out (immunoblot),CFTR [2],sustaining the protein well beyond 20 d of wash out
same,BECN1 in whole homogenates,[3],able to restore BECN1
same,Biomarkers (phospho)p42/44 MAPK in whole homogenates,[3],decrease biomarkers (phospho)p42/44 MAPK
same,CFTR function after wash out with EGCG added,"F508delCFTR; 48 h after wash out, epigallocatechin gallate added, nasal primary cells",effect is preserved
same,CFTR function after wash out,"F508delCFTR; 48 h after wash out, nasal primary cells",loses its efficacy
same,Efficacy on CFTR function compared with VX-809,"F508delCFTR; VX-809 3 μM, FIG. 2A",more efficacious than VX-809
same,CFTR function after wash out,"F508delCFTR; up to 24 h after wash out, nasal cells",able to maintain CFTR function
same,PM-resident CFTR protein,CFTR [4]; 0.1 μM,a sizeable fraction of the channel resided at the PM
same,PM-resident CFTR protein after washout,"CFTR [4]; 0.1 μM, 24 h of washout",maintained
same,PM-resident CFTR protein after washout,CFTR [4]; 48 h of washout,decreases
same,PM-resident CFTR protein after washout with EGCG added,"CFTR [4]; 48 h of washout, EGCG added",completely maintained

# — patent US20200179312A1, “ANALOGUES OF CYSTEAMINE AS THERAPEUTIC AGENTS FOR CYSTIC FIBROSIS” (I.E.R.F.C. EUROPEAN INSTITUTE FOR CYSTIC FIBROSIS RESEARCH, priority 2018, published 2020)
